Like-named read-outs stand apart in the source and are kept apart here.
Assays:
[1] = system: synthesis of LTB4 in human whole blood; assay: Human whole blood assay (calcimycin-stimulated LTB4 synthesis); format: cell-based; conditions: read-out: Human Whole Blood LTB4 Assay for FLAP (IC50 nM)
Method in brief: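 Steps: compound plus heparinized human whole blood, 15 min at 37° C; add calcimycin to 20 μM final; incubate another 30 min at 37° C; centrifuge at low speed and collect plasma; measure LTB4 with a homogeneous time-resolved fluorescence immunoassay.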

[2] = molecular target: T1, recombinant human FLAP protein (Homo sapiens, UniProt P20292); assay: FLAP binding assay (Scintillation Proximity Assay, displacement of [125I]L-691,831); conditions: read-out: Human FLAP SPA Binding (IC50 nM)
T1 construct: made in house; host or cells: Sf9 insect cells (membrane fraction, 100,000 x g pellet)
T1 sequence (P20292 1-161): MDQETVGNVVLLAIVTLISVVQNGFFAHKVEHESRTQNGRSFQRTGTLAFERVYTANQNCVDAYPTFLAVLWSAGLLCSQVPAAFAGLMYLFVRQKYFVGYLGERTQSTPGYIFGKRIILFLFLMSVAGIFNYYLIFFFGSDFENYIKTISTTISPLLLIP
Method in brief: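 Membranes from sf9 cells expressing recombinant human FLAP (5 μg/well) on WGA SPA beads were incubated with compound and 0.08 nM [125I]L-691,831 in Tris pH 7.5 binding buffer, shaken 2 h. Displacement read by scintillation proximity; non-specific binding set with 10 μM unlabelled L-691,831.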

Structure (SMILES) | IC50 ([1]; Homo sapiens) [nM] | IC50 [2] [nM] | IC50 [1] [nM]
Nc1ncc(-c2ccc(C3(c4c[nH]c5c(C(=O)NCCO)cccc45)CCC3)cc2)cn1 [Example 119, 3-{1-[4-(2-aminopyrimidin-5-yl)phenyl]cyclobutyl}-N-(2-hydroxyethyl)-1H-indole-7-carboxamide] | 170 | 1.5 | –
Nc1ncc(-c2ccc(C3(c4cn(CCOCCO)c5ccccc45)CCC3)cc2)cn1 [Example 120, 2-[2-(3-{1-[4-(2-aminopyrimidin-5-yl)phenyl]cyclobutyl}-1H-indol-1-yl)ethoxy]ethanol] | > 5000 | 4.7 | –
Nc1ncc(-c2ccc(C3(c4nnc(-c5ccccc5)[nH]4)CCC3)cn2)cn1 [Example 121, 5-{5-[1-(5-phenyl-4H-1,2,4-triazol-3-yl)cyclobutyl]pyridin-2-yl}pyrimidin-2-amine] | 810 | 8.7 | –
Cn1cc(C(c2ccc(-c3cnc(N)nc3)nc2)C(C)(C)C)c2ccccc21 (stereo not shown) [Example 122, 5-{5-[2,2-dimethyl-1-(1-methyl-1H-indol-3-yl)propyl]pyridin-2-yl}pyrimidin-2-amine] | > 5000 | 75 | –
COC(=O)Cn1cc(C2(c3ccc(-c4cnc(N)nc4)cc3)CCC2)c2ccccc21 [Example 123, methyl (3-{1-[4-(2-aminopyrimidin-5-yl)phenyl]cyclobutyl}-1H-indol-1-yl)-acetate] | > 5000 | 7.9 | –
Nc1ncc(-c2ccc(C3(c4cn(CC(=O)O)c5ccccc45)CCC3)cc2)cn1 [Example 124, (3-{1-[4-(2-aminopyrimidin-5-yl)phenyl]cyclobutyl}-1H-indol-1-yl)acetic acid] | > 5000 | 5.5 | –
Nc1ncc(-c2ccc(C3(c4nc5ncccc5[nH]4)CCC3)cc2)cn1 [Example 125, 5-{4-[1-(1H-imidazo[4,5-b]pyridin-2-yl)cyclobutyl]phenyl}pyrimidin-2-amine] | 3400 | 250 | –
Nc1ncc(-c2ccc(C3(c4nc5cnccc5[nH]4)CCC3)cc2)cn1 [Example 126, 5-{4-[1-(1H-imidazo[4,5-c]pyridin-2-yl)cyclobutyl]phenyl}pyrimidin-2-amine] | 1800 | 71 | –
Nc1ncc(-c2ccc(C3(c4nc5ccccc5o4)CCC3)cc2)cn1 [Example 127, 5-{4-[1-(1,3-benzoxazol-2-yl)cyclobutyl]phenyl}pyrimidin-2-amine] | 1900 | 7.2 | –
Nc1ncc(-c2ccc(C3(c4nc5ccccc5s4)CCC3)cc2)cn1 [Example 128, 5-{4-[1-(1,3-benzothiazol-2-yl)cyclobutyl]phenyl}pyrimidin-2-amine] | 2300 | 8.1 | –
Cc1ccc(-c2nnc(C3(c4ccc(-c5cnc(N)nc5)cc4)CCC3)[nH]2)cn1 [Example 129, 5-(4-{1-[5-(6-methylpyridin-3-yl)-4H-1,2,4-triazol-3-yl]cyclobutyl}phenyl)pyrimidin-2-amine] | 4000 | 7.6 | –
c1cnc2[nH]cc(C3(c4ccc(-c5cnc6[nH]ccc6c5)cc4)CCC3)c2c1 [Example 130, 3-{1-[4-(1H-pyrrolo[2,3-b]pyridin-5-yl)phenyl]cyclobutyl}-1H-pyrrolo[2,3-b]pyridine] | 140 | 1.5 | –
Cc1ccc(-c2nnc(C3(c4ccc(-c5cnc(N)nc5)cc4)CCC3)s2)cn1 [Example 131, 5-(4-{1-[5-(6-methylpyridin-3-yl)-1,3,4-thiadiazol-2-yl]cyclobutyl}phenyl)pyrimidin-2-amine] | 920 | 5.5 | –
CN(CCO)C(=O)Cn1cc(C2(c3ccc(-c4cnc(N)nc4)cc3)CCC2)c2ccccc21 [Example 132, 2-(3-{1-[4-(2-aminopyrimidin-5-yl)phenyl]cyclobutyl}-1H-indol-1-yl)-N-(2-hydroxyethyl)-N-methylacetamide] | > 5000 | 7.2 | –
Nc1ncc(-c2ccc(C3(c4cn(CC(=O)N5CC(O)C5)c5ccccc45)CCC3)cc2)cn1 [Example 133, 2-(3-{1-[4-(2-aminopyrimidin-5-yl)phenyl]cyclobutyl}-1H-indol-1-yl)-1-(3-hydroxyazetidin-1-yl)ethanone] | > 5000 | 7.5 | –
Nc1ncc(-c2ccc(C3(c4c[nH]c5c(C(=O)N6CC[C@@H](O)C6)cccc45)CCC3)cc2)cn1 [Example 134, (3-{1-[4-(2-aminopyrimidin-5-yl)phenyl]cyclobutyl}-1H-indol-7-yl)[(3R)-3-hydroxypyrrolidin-1-yl]methanone] | 270 | 1.8 | –
Nc1ncc(-c2ccc(C3(c4c[nH]c5c(C(=O)N6CC[C@H](O)C6)cccc45)CCC3)cc2)cn1 [Example 135, (3-{1-[4-(2-aminopyrimidin-5-yl)phenyl]cyclobutyl}-1H-indol-7-yl)[(3S)-3-hydroxypyrrolidin-1-yl]methanone] | 500 | 2.3 | –
Cn1c(C2(c3ccc(-c4cnc(N)nc4)cc3)CCC2)nc2ccccc21 [Example 136, 5-{4-[1-(1-methyl-1H-benzimidazol-2-yl)cyclobutyl]phenyl}pyrimidin-2-amine] | > 5000 | 190 | –
Nc1ncc(-c2ccc(C3(c4nc5ccccc5[nH]4)CCC3)cn2)cn1 [Example 137, 5-{5-[1-(1H-benzimidazol-2-yl)cyclobutyl]pyridin-2-yl}pyrimidin-2-amine] | > 5000 | 410 | –
Nc1ncc(-c2ccc(C3(c4nc5ccccc5o4)CCC3)cn2)cn1 [Example 138, 5-{5-[1-(1,3-benzoxazol-2-yl)cyclobutyl]pyridin-2-yl}pyrimidin-2-amine] | 990 | 18 | –

Further lines, results first:

IC50 ([1]; Homo sapiens) [nM] | IC50 [2] [nM] | IC50 [1] [nM] | Structure (SMILES)
> 5000 | 27 | – | Nc1ncc(-c2ccc(C3(c4nc5ccccc5[nH]4)CCC3)cc2)cn1 [Example 139, 5-{4-[1-(1H-benzimidazol-2-yl)cyclobutyl]phenyl}pyrimidin-2-amine]
> 5000 | 10 | – | Nc1ncc(-c2ccc(C3(c4nc5ccccc5s4)CCC3)cn2)cn1 [Example 140, 5-{5-[1-(1,3-benzothiazol-2-yl)cyclobutyl]pyridin-2-yl}pyrimidin-2-amine]
350 | 5.8 | – | Cc1cc2c(C3(c4ccc(-c5cnc(N)nc5)cc4)CCC3)c[nH]c2cn1 [Example 141, 5-{4-[1-(5-methyl-1H-pyrrolo[2,3-c]pyridin-3-yl)cyclobutyl]phenyl}pyrimidin-2-amine]
1500 | 12 | – | Nc1ncc(-c2ccc(C3(c4nnc(-c5ccc(F)cc5)[nH]4)CCC3)cn2)cn1 [Example 143, 5-(5-{1-[5-(4-fluorophenyl)-4H-1,2,4-triazol-3-yl]cyclobutyl}pyridin-2-yl)pyrimidin-2-amine]
2500 | 4 | – | COc1ccc(-c2nnc(C3(c4ccc(-c5cnc(N)nc5)cc4)CCC3)[nH]2)cn1 [Example 144, 5-(4-{1-[5-(6-methoxypyridin-3-yl)-4H-1,2,4-triazol-3-yl]cyclobutyl}phenyl)pyrimidin-2-amine]
– | 1.7 | 150 | COc1nccc2c(C3(c4ccc(-c5cnc(N)nc5)cc4)CCC3)c[nH]c12 [Example 145, 5-{4-[1-(7-methoxy-1H-pyrrolo[2,3-b]pyridin-3-yl)cyclobutyl]phenyl}pyrimidin-2-amine]
310 | 1.7 | – | CN1CCN(C(=O)c2cccc3c(C4(c5ccc(-c6cnc(N)nc6)cc5)CCC4)c[nH]c23)CC1 [Example 146]
> 5000 | 7.9 | – | NC(=O)Cn1cc(C2(c3ccc(-c4cnc(N)nc4)cc3)CCC2)c2ccccc21 [Example 147]
3100 | 9 | – | Nc1ncc(-c2ccc(C3(c4cn(CC(=O)N5CCOCC5)c5ccccc45)CCC3)cc2)cn1 [Example 148, 2-(3-{1-[4-(2-aminopyrimidin-5-yl)phenyl]cyclobutyl}-1H-indol-1-yl)-1-(morpholin-4-yl)ethanone]
110 | 2 | – | Nc1ncc(-c2ccc(C3(c4c[nH]c5c(C(=O)N6CCC6)cccc45)CCC3)cc2)cn1 [Example 149, (3-{1-[4-(2-aminopyrimidin-5-yl)phenyl]cyclobutyl}-1H-indol-7-yl)(azetidin-1-yl)methanone]
> 5000 | 1.5 | – | Nc1ncc(-c2ccc(C3(c4c[nH]c5c(C(=O)O)cccc45)CCC3)cc2)cn1 [Example 150, 3-{1-[4-(2-aminopyrimidin-5-yl)phenyl]cyclobutyl}-1H-indole-7-carboxylic acid]
890 | 7 | – | Cc1cc(C2(c3c[nH]c4ccccc34)CCC2)ccc1-c1cnc(N)nc1 [Example 151, 5-{4-[1-(1H-indol-3-yl)cyclobutyl]-2-methylphenyl}pyrimidin-2-amine]
55 | 1.7 | – | Cc1nccc2c(C3(c4ccc(-c5cnc(N)nc5)cc4)CCC3)c[nH]c12 [Example 152, 5-{4-[1-(7-methyl-1H-pyrrolo[2,3-c]pyridin-3-yl)cyclobutyl]phenyl}pyrimidin-2-amine]
1100 | 3.1 | – | COc1ncccc1-c1nnc(C2(c3ccc(-c4cnc(N)nc4)cc3)CCC2)[nH]1 [Example 153, 5-(4-{1-[5-(2-methoxypyridin-3-yl)-4H-1,2,4-triazol-3-yl]cyclobutyl}phenyl)pyrimidin-2-amine]
> 5000 | 22 | – | Cn1cc(C(c2ccc(-c3cnc(N)nc3)cc2)C(C)(C)C)c2ccccc21 (stereo not shown) [Example 154, 5-{4-[2,2-dimethyl-1-(1-methyl-1H-indol-3-yl)propyl]phenyl}pyrimidin-2-amine]

From US9174980B2, “Heterocyclic compounds as inhibitors of leukotriene production” (Boehringer Ingelheim International GmbH, priority 2012, dated 2015)
